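Five compound concentrations were applied to cells in 96-well plates for 48 hours; endpoints were derived by simple linear interpolation of the resulting dose-response curve. The concentration for full growth arrest is given as TGI.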
Columns and labels:
Assay in all cases: growth of human tumour cells (NCI), 48 h
CAKI-1 renal = tested on: CAKI-1 renal
TK-10 renal = tested on: TK-10 renal
MOLT-4 leukemia = tested on: MOLT-4 leukemia
HOP-92 NSCLC = tested on: HOP-92 NSCLC
SK-MEL-28 melanoma = tested on: SK-MEL-28 melanoma
K-562 leukemia = tested on: K-562 leukemia
SW-620 colon = tested on: SW-620 colon
MDA-N = tested on: MDA-N
NCI-H522 lung = tested on: NCI-H522 lung
UACC-62 melanoma = tested on: UACC-62 melanoma
SN12C renal = tested on: SN12C renal
NCI-H460 lung = tested on: NCI-H460 lung
U251 CNS = tested on: U251 CNS
OVCAR-8 ovarian = tested on: OVCAR-8 ovarian
NCI-H23 lung = tested on: NCI-H23 lung
OVCAR-5 ovarian = tested on: OVCAR-5 ovarian
MDA-MB-231 breast = tested on: MDA-MB-231 breast
786-0 renal = tested on: 786-0 renal
HCT-116 colon = tested on: HCT-116 colon
MCF7 breast = tested on: MCF7 breast
ACHN renal = tested on: ACHN renal
NCI-H226 lung = tested on: NCI-H226 lung
DU-145 prostate = tested on: DU-145 prostate
COLO 205 colon = tested on: COLO 205 colon
HCC-2998 colon = tested on: HCC-2998 colon
SF-268 CNS = tested on: SF-268 CNS
NCI/ADR-RES ovarian = tested on: NCI/ADR-RES ovarian
HL-60(TB) leukemia = tested on: HL-60(TB) leukemia
SK-OV-3 ovarian = tested on: SK-OV-3 ovarian
HT29 colon = tested on: HT29 colon
UACC-257 melanoma = tested on: UACC-257 melanoma
RPMI-8226 leukemia = tested on: RPMI-8226 leukemia
HS 578T breast = tested on: HS 578T breast
OVCAR-4 ovarian = tested on: OVCAR-4 ovarian
KM12 colon = tested on: KM12 colon
EKVX NSCLC = tested on: EKVX NSCLC
SNB-75 CNS = tested on: SNB-75 CNS
MDA-MB-435 = tested on: MDA-MB-435
LOX IMVI melanoma = tested on: LOX IMVI melanoma
IGROV1 ovarian = tested on: IGROV1 ovarian
SNB-19 CNS = tested on: SNB-19 CNS
MALME-3M melanoma = tested on: MALME-3M melanoma
SR leukemia = tested on: SR leukemia
A549 NSCLC = tested on: A549 NSCLC
RXF 393 renal = tested on: RXF 393 renal
A498 renal = tested on: A498 renal
UO-31 renal = tested on: UO-31 renal
BT-549 breast = tested on: BT-549 breast
HOP-62 NSCLC = tested on: HOP-62 NSCLC
T-47D breast = tested on: T-47D breast
PC-3 prostate = tested on: PC-3 prostate
SF-295 CNS = tested on: SF-295 CNS
M14 melanoma = tested on: M14 melanoma
SK-MEL-2 melanoma = tested on: SK-MEL-2 melanoma
HCT-15 colon = tested on: HCT-15 colon
CCRF-CEM leukemia = tested on: CCRF-CEM leukemia
SF-539 CNS = tested on: SF-539 CNS
SK-MEL-5 melanoma = tested on: SK-MEL-5 melanoma
OVCAR-3 ovarian = tested on: OVCAR-3 ovarian
LXFL 529 NSCLC = tested on: LXFL 529 NSCLC
SNB-78 CNS = tested on: SNB-78 CNS
KM20L2 colon = tested on: KM20L2 colon
DMS 114 small cell lung = tested on: DMS 114 small cell lung
M19-MEL melanoma = tested on: M19-MEL melanoma

Measured: TGI

COCN1C(=O)[C@@H]2CCCN2C(=O)c2ccc(Cl)cc21
> 100 µM: CAKI-1 renal | TK-10 renal | MOLT-4 leukemia | HOP-92 NSCLC | SK-MEL-28 melanoma | K-562 leukemia | SW-620 colon | MDA-N | NCI-H522 lung | UACC-62 melanoma | SN12C renal | NCI-H460 lung | U251 CNS | OVCAR-8 ovarian | NCI-H23 lung | OVCAR-5 ovarian | MDA-MB-231 breast | 786-0 renal | HCT-116 colon | MCF7 breast | ACHN renal | NCI-H226 lung | DU-145 prostate | COLO 205 colon | HCC-2998 colon | SF-268 CNS | NCI/ADR-RES ovarian | HL-60(TB) leukemia | SK-OV-3 ovarian | HT29 colon | UACC-257 melanoma | RPMI-8226 leukemia | HS 578T breast | OVCAR-4 ovarian | KM12 colon | EKVX NSCLC | SNB-75 CNS | MDA-MB-435 | LOX IMVI melanoma | IGROV1 ovarian | SNB-19 CNS | MALME-3M melanoma | SR leukemia | A549 NSCLC | RXF 393 renal | A498 renal | UO-31 renal | BT-549 breast | HOP-62 NSCLC | T-47D breast | PC-3 prostate | SF-295 CNS | M14 melanoma | SK-MEL-2 melanoma | HCT-15 colon

N#Cc1nc(N)c(C#N)[nH]1
> 100 µM: CAKI-1 renal | CCRF-CEM leukemia | TK-10 renal | MOLT-4 leukemia | HOP-92 NSCLC | SK-MEL-28 melanoma | K-562 leukemia | SW-620 colon | MDA-N | NCI-H522 lung | UACC-62 melanoma | SN12C renal | NCI-H460 lung | U251 CNS | OVCAR-8 ovarian | NCI-H23 lung | OVCAR-5 ovarian | SF-539 CNS | MDA-MB-231 breast | 786-0 renal | HCT-116 colon | MCF7 breast | ACHN renal | NCI-H226 lung | DU-145 prostate | COLO 205 colon | HCC-2998 colon | SF-268 CNS | NCI/ADR-RES ovarian | HL-60(TB) leukemia | SK-OV-3 ovarian | HT29 colon | UACC-257 melanoma | RPMI-8226 leukemia | HS 578T breast | OVCAR-4 ovarian | KM12 colon | EKVX NSCLC | SNB-75 CNS | SK-MEL-5 melanoma | MDA-MB-435 | LOX IMVI melanoma | IGROV1 ovarian | SNB-19 CNS | MALME-3M melanoma | SR leukemia | A549 NSCLC | RXF 393 renal | A498 renal | UO-31 renal | OVCAR-3 ovarian | BT-549 breast | HOP-62 NSCLC | T-47D breast | PC-3 prostate | SF-295 CNS | M14 melanoma | SK-MEL-2 melanoma | HCT-15 colon

Cc1cnc2cc(Cl)ccc2c1NCCN(CC(C)C)CC(C)C
85.3 µM: HOP-92 NSCLC
> 100 µM: MOLT-4 leukemia | SK-MEL-28 melanoma | NCI-H522 lung | UACC-62 melanoma | NCI-H460 lung | LXFL 529 NSCLC | U251 CNS | NCI-H23 lung | OVCAR-5 ovarian | SF-539 CNS | SNB-78 CNS | KM20L2 colon | HCT-116 colon | ACHN renal | COLO 205 colon | HCC-2998 colon | SF-268 CNS | HL-60(TB) leukemia | SK-OV-3 ovarian | HT29 colon | UACC-257 melanoma | RPMI-8226 leukemia | OVCAR-4 ovarian | KM12 colon | SNB-75 CNS | IGROV1 ovarian | DMS 114 small cell lung | SR leukemia | M19-MEL melanoma | UO-31 renal | OVCAR-3 ovarian | HOP-62 NSCLC | SF-295 CNS | M14 melanoma | SK-MEL-2 melanoma

[N-]=[N+]=NCC(=O)c1c[nH]c(=O)[nH]c1=O
> 100 µM: CAKI-1 renal | CCRF-CEM leukemia | TK-10 renal | HOP-92 NSCLC | SK-MEL-28 melanoma | K-562 leukemia | SW-620 colon | MDA-N | NCI-H522 lung | UACC-62 melanoma | SN12C renal | NCI-H460 lung | U251 CNS | OVCAR-8 ovarian | NCI-H23 lung | OVCAR-5 ovarian | SF-539 CNS | MDA-MB-231 breast | 786-0 renal | HCT-116 colon | MCF7 breast | ACHN renal | NCI-H226 lung | DU-145 prostate | COLO 205 colon | HCC-2998 colon | SF-268 CNS | NCI/ADR-RES ovarian | HL-60(TB) leukemia | SK-OV-3 ovarian | HT29 colon | UACC-257 melanoma | RPMI-8226 leukemia | HS 578T breast | OVCAR-4 ovarian | KM12 colon | EKVX NSCLC | SNB-75 CNS | SK-MEL-5 melanoma | MDA-MB-435 | LOX IMVI melanoma | IGROV1 ovarian | SNB-19 CNS | MALME-3M melanoma | SR leukemia | A549 NSCLC | RXF 393 renal | A498 renal | UO-31 renal | OVCAR-3 ovarian | BT-549 breast | HOP-62 NSCLC | T-47D breast | PC-3 prostate | SF-295 CNS | M14 melanoma | SK-MEL-2 melanoma | HCT-15 colon

From PubChem BioAssay (NCI)
